Data as given in publication PMC8766756, “Insights on Cancer Cell Inhibition, Subcellular Activities, and Kinase Profile of Phenylacetamides Pending 1H-Imidazol-5-One Variants” (Frontiers in Pharmacology, 2022).
Several values for one entry are separate records, joined by “and”; a condition that tells them apart may be missing. Identical values can stand only once.

Experiments:
FLT3 (P36888) = target: T1, FLT3 (P36888) (Homo sapiens, UniProt P36888); assay: PamChip tyrosine kinase microarray; type: biochemical; conditions: 0.1 µM, HL60 lysate
T1 construct: purchased PamGene (PamChip PTK array, Upstream Kinase Analysis)
T1 sequence (P36888 27-993): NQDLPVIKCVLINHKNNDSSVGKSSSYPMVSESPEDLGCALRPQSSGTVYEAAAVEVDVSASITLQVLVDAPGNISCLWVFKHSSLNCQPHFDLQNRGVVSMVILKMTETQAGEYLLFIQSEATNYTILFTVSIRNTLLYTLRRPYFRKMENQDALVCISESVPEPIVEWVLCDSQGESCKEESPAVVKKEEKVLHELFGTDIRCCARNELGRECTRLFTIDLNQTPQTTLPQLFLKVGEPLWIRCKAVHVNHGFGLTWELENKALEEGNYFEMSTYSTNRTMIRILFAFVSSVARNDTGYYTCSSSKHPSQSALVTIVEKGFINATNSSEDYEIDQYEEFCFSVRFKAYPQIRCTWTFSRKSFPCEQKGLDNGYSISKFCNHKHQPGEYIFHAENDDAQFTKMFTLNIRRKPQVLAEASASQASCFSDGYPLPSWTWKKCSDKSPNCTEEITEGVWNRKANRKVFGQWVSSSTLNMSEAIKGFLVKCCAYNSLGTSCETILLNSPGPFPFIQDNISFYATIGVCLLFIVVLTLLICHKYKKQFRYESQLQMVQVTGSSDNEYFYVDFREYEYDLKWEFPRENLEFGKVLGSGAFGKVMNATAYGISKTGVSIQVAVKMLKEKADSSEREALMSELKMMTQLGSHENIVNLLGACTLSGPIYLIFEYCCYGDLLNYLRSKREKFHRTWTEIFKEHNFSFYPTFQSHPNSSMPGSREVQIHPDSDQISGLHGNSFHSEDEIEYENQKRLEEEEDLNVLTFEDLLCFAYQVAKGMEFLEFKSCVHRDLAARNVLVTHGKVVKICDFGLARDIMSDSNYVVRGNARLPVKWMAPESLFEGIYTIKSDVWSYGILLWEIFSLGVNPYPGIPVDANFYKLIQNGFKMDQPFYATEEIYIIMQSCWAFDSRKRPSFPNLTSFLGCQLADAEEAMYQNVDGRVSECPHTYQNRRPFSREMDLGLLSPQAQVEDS
Outline: (§1)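 HL60 (AML) cell lysate was spiked with compound at 0.001, 0.01, 0.1, 1, 10 and 50 µM, or 2% v/v DMSO as control, then profiled in technical replicates on a tyrosine kinase peptide array of 196 phosphosites. Kinase activity was inferred from peptide-set changes using an upstream kinase tool.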

Axl (P30530) = target: T2, Axl (P30530) (Homo sapiens, UniProt P30530); assay: PamChip tyrosine kinase microarray; type: biochemical; conditions: 0.1 µM, HL60 lysate
T2 construct: purchased PamGene (PamChip PTK array, Upstream Kinase Analysis)
T2 sequence (P30530 26-894): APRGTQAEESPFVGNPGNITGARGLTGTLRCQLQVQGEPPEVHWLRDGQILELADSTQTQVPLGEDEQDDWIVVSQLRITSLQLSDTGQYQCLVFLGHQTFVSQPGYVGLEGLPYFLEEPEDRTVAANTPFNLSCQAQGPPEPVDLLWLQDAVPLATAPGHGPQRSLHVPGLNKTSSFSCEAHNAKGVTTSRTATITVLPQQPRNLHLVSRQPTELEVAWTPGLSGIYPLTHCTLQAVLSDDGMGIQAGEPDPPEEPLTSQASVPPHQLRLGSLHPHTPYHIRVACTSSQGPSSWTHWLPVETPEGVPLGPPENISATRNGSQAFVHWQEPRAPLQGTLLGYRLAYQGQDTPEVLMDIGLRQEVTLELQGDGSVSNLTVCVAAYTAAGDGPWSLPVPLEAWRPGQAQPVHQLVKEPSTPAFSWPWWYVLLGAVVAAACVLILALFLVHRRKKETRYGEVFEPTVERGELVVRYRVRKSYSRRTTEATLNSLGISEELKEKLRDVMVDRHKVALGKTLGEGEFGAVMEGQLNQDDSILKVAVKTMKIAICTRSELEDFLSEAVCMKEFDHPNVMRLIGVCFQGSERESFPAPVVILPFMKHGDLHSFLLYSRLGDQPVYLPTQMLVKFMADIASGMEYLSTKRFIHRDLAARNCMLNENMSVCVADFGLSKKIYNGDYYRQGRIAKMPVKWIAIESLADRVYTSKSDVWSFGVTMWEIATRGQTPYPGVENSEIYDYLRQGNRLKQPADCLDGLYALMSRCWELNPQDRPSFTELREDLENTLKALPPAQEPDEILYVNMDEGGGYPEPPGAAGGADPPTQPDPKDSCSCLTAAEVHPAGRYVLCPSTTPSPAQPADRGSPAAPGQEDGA
Outline: as §1

SMILES: COc1ccc(/C=C2\N=C(C)N(c3ccc(CC(=O)NCc4ccccc4)cc3)C2=O)cc1 [Compound 4c, (Z)-N-Benzyl-2-(4-(4-(4-methoxybenzylidene)-2-methyl-5-oxo-4,5-dihydro-1H-imidazol-1-yl)phenyl)acetamide]
- Mean Significance Score (FLT3 (P36888)): 2.042
- Mean Specificity Score (FLT3 (P36888)): 1.043
- Mean Final score (Kinase score) (FLT3 (P36888); listed as KIM-161): 3.19 and 3.193
- Mean Final score (Kinase score) (Axl (P30530)): 2.569
- Mean Kinase Statistic (Axl (P30530)): -1.219
- Mean Significance Score (Axl (P30530)): 2.048
- Mean Specificity Score (Axl (P30530)): 0.5684
